Where two headings read alike, the source gives them in different places.
Experiments:
[1] = system: G-quadruplex, oligonucleotide GGGTTAGGGTTAGGGTTAGGG (human telomeric motif); assay: Fluorescence Tm: G-quadruplex stabilization of FAM+DABCYL telomeric oligonucleotide; format: binding; details: product 1 μM, oligonucleotide 0.2 μM, 0.1 M LiCl, 10 mM sodium cacodylate pH 7.6; reference Tm 44° C.
Excerpt: The G-quadruplex stabilizing activity can be determined with a method using the formation of a complex with fluorescein, for which the experimental protocol is described below. The compounds of the present invention can thus be used as a fluorescent probe for determining the presence of G-quadruplexes.
All the oligonucleotides, modified or unmodified, were synthesized by Eurogentec SA, Seraing, Belgium. The FAM+DABCYL oligonucleotide carries the catalogue reference OL-0371-0802 and has the sequence: […] (SEQ ID NO: 1), corresponding to 3.5 repeats of the human telomeric motif (strand rich in G). The fluorescein is attached to the 5′ end and the DABCYL to the 3′ end, via the chemical arms described by Eurogentec. The concentration of the samples was verified by spectrophotometry, recording the absorbance spectrum between 220 nm and 700 nm and using the molar extinction coefficient provided by the supplier. […]
All the measurements of fluorescence were carried out on a Spex Fluorolog DM1B apparatus, using an excitation line width of 1.8 nm and an emission line width of 4.5 nm. […] The oligonucleotide alone was analysed at 20, 30, 40, 50, 60, 70, and 80° C. The emission spectra were recorded using an excitation wavelength of 470 nm. The excitation spectra were recorded using either 515 nm or 588 nm as the emission wavelength. […] When present, this juxtaposition caused the aforementioned phenomenon of extinction of fluorescence, which was used for determining the presence of a G-quadruplex.
A stock solution of oligonucleotide at the strand concentration of 0.2 μM in a 0.1 M LiCl, 10 mM sodium cacodylate buffer, pH 7.6, was prepared beforehand, heated briefly at 90° C. and slowly cooled to 20° C., and then distributed, in 600 μl aliquots, into the fluorescence cuvettes. […]
Each experiment allows the measurement of only one sample. […] During this time, the fluorescence was measured simultaneously at two emission wavelengths (515 nm and 588 nm) using 470 nm as the excitation wavelength. […]

[2] = system: human telomerase; assay: Telomerase activity assay (TRAP) with HL60 cell extract; format: biochemical; details: HL60 extract enriched in telomerase activity, TS extension followed by PCR
Experimental: The extract was stored at -80° C. […] ID NO: 3).

[3] = system: A549 cells; assay: Cytotoxic activity on human tumor line, neutral red, 96 hours; format: cell-based
Experimental: The cells in the exponential growth phase were trypsinized, washed in 1X PBS and seeded into 96-well microplates (Costar) in a proportion of 4×10^4 cells/ml (0.2 ml/well). The cells were then incubated for 96 hours in the presence of varying concentrations of product to be tested (10,1, 0.1, and 0.01 μg/ml, each point in quadruplicate). 16 hours before the end of the incubation, 0.02% (final concentration) of neutral red was added to each well. At the end of the incubation, the cells were washed with IX PBS and lysed with 1% of sodium laurylsulphate. The cellular incorporation of the dye, which reflects cell growth, was evaluated by spectrophotometry at a wavelength of 540 nm for each sample, using a Dynatech MR5000 reader machine.

| Compound | Fluorescence Δ Tm [1] [°C] | IC50 [2] [nM] | IC50 [3] [nM] | IC50 ([3]; 96 hours incubation, neutral red incorporation, read-out: A459 Cytotox IC50) [nM] |
| --- | --- | --- | --- | --- |
| 7-Amino-2-(2-amino-1,6-dimethylpyrimidinio-4-yl)-(4-aminophenyl)-10-ethylphenanthridinium bromide [Example 3] | 9.6 | 47 | 13400 |  |
| CC[n+]1c(-c2ccccc2)c2cc(NN=Nc3cccc(C(=N)N)c3)ccc2c2ccc(N)cc21.Cl.[Cl-] [Example 1, 7-(3-amidinophenyl)diazoamino-2-amino-10-ethyl-9-phenylphenanthridinium chloride hydrochloride] | 9.7 | 19 |  | 3380 |
| Br.CC[n+]1c(-c2ccccc2)c2c(N=Nc3cccc(C(=N)N)c3)c(N)ccc2c2ccc(N)cc21.[Br-] [Example 2, 8-(3-Amidinophenyl)diazo-2,7-diamino-10-ethyl-9-phenylphenanthridinium bromide hydrobromide] | 7.9 | 97 |  |  |
